pIC50, pKi: −log10 of the molar value. Where two headings read alike, the source gives them in different places.
Key:
PDEV [1] = biological target: T1, PDEV (Oryctolagus cuniculus, UniProt G1SX67); assay: Cyclic nucleotide phosphodiesterase (PDE) assay, inhibition of PDEV isolated from rabbit tissue; assay type: biochemical; details: for inhibition at 10 µM / % Inh @ 10 μM (rabbit) / % INH @ 10 μM (rabbit): 10 μM test compound, rabbit PDEV
Description: Briefly, rabbit or human tissues were homogenized in an ice-cold buffer solution containing 20 mM HEPES (pH 7.2), 0.25M sucrose, 1 mM EDTA, and 1 mM phenylmethylsulphonyl fluoride (PMSF). The homogenates were centrifuged at 100,000 g for 60 minutes at 4° C. The supernatant was filtered through […] filter and loaded on a Pharmacia Mono Q anion exchange column (1 ml bed volume) that was equilibrated with 20 mM HEPES, 1 mM EDTA and 0.5 mM PMSF. […] The fractions comprising various PDE activities were pooled separately and used in later studies.
(§1) The assays were adapted to a 96-well format. The enzyme was assayed in 5 mM MgCl2, 15 mM Tris HCl (pH 7.4), 0.5 mg/ml bovine serum albumin, 1 μM cGMP or cAMP, 0.1 μCi [^3H]-cGMP or [^3H]-cAMP, and 2-10 μl of column elution. The total volume of the assay was 100 μl. The reaction mixture was incubated at 30° C. for 30 minutes. The reaction was stopped by boiling for 1 minute and then cooled down on ice. The resulting [^3H] 5′-mononucleotides were further converted to uncharged [^3H]-nucleosides by adding 25 μl 1 mg/ml snake venom (Ophiophagus hannah) and incubating at 30° C. for 10 minute. The reaction was stopped by the addition of 1 ml Bio-Rad AG1-X2 resin slurry (1:3). All the charged nucleotides were bound by the resin and only the uncharged [^3H]-nucleosides remained in the supernatant after centrifuging. An aliquot of 200 μl was taken and counted by liquid scintillation. PDE activity was expressed as pmol cyclic nucleotide hydrolyzed/min/ml of enzyme preparation.
Inhibitor studies were carried out in assay buffer with a final concentration of 10% DMSO.

PDEV [2] = biological target: T2, PDEV (Homo sapiens, UniProt O76074); assay: Cyclic nucleotide phosphodiesterase (PDE) assay, inhibition of PDEV isolated from human tissue; assay type: biochemical; details: footnote a: tested using human tissue; for pIC50: PDEV
T2 construct: rabbit or human tissues were homogenized in an ice-cold buffer solution; from tissue; host or cells: human tissue
Description: PDEV was isolated from rabbit and human tissues according to the protocol described by Boolell et al. (Boolell, M., Allen, M. J., Ballard, S. A., Ge[o-Attee, S., Muirhead, G. J., Naylor, A. M., Osterloh, I. H., and Gingell, C) in International Journal of Impotence Research 1996 8, 47-52 with minor modifications.
Briefly, rabbit or human tissues were homogenized in an ice-cold buffer solution containing 20 mM HEPES (pH 7.2), 0.25M sucrose, 1 mM EDTA, and 1 mM phenylmethylsulphonyl fluoride (PMSF). The homogenates were centrifuged at 100,000 g for 60 minutes at 4° C. The supernatant was filtered through […] filter and loaded on a Pharmacia Mono Q anion exchange column (1 ml bed volume) that was equilibrated with 20 mM HEPES, 1 mM EDTA and 0.5 mM PMSF. After washing out unbound proteins, the enzymes were eluted with a linear gradient of 100-600 mM NaCl in the same buffer (35 to 50 ml total, depending on the tissue. Enzymes from the skeletal muscle, corpus cavernosum, retina, heart and platelet were eluted with 35, 40, 45, 50, and 50 ml respectively.) The column was run at a flow rate of 1 ml/min and 1 ml fractions were collected. The fractions comprising various PDE activities were pooled separately and used in later studies.
The PDE assay was carried out as described by Thompson and Appleman in Biochemistry 1971 10, 311-316 with minor modifications, as noted below.
as §1
Inhibitor studies were carried out in assay buffer with a final concentration of 10% DMSO. Under these conditions, the hydrolysis of product increased with time and enzyme concentration in a linear fashion.

PDEV [3] = biological target: T1, PDEV; assay: In vitro determination of Ki for phosphodiesterase inhibitors (IC50/Ki, 30 nM 3H-cGMP); assay type: biochemical; details: printed in the % INH column as Ki value
Description: The assay was adapted to a 96-well format. Phosphodiesterase was assayed in 5 mM MgCl2, 15 mM Tris HCl (pH 7.4), 0.5 mg/ml bovine serum albumin, 30 nM ^3H-cGMP and test compound at various concentrations. […] For all measurements, the test compound was dissolved and diluted in 100% DMSO (2% DMSO in assay). The total volume of the assay was 100 μl. The reaction mixture was incubated at 30° C. for 90 minutes. The reaction was stopped by boiling for 1 minute and then immediately cooled by transfer to an ice bath. To each well was then added 25 μl 1 mg/ml snake venom (Ophiophagus hannah) and the reaction mixture incubating at 30° C. for 10 minute. The reaction was stopped by the addition of 1 ml Bio-Rad AG1-X2 resin slurry (1:3). An aliquot of 200 μl was taken and counted by liquid scintillation.
The % inhibition of the maximum substrate conversion (by the enzyme in the absence of inhibitor) was calculated for each test compound concentration. Using GraphPad Prism′s nonlinear regression analysis (sigmoidal dose response), the % inhibition vs log of the test compound concentration was plotted to determine the IC50. Under conditions where substrate concentration <<Km of the enzyme (Km=substrate concentration at which half of the maximal velocity of the enzyme is achieved), Ki is equivalent to the IC50 value. […]

erectile dysfunction = details: cited from earlier work
[4] = read-out: % INH @ 10 μM (rabbit)

Compound: COc1ccc(-c2cnc(N3CCc4c([nH]c5ccccc45)C3c3ccc4c(c3)OCO4)nc2)cc1OC (stereo not drawn) [Cmpd 7, 1-(3,4-Methylenedioxyphenyl)-2-[5-(3,4-dimethoxyphenyl)pyrimidin-2-yl]-2,3,4,9-tetrahydro-1H-β-carboline]
- melting point: 173 to 175 °C
- inhibition at 10 µM (PDEV [1]; read-out: % Inh @ 10 μM (rabbit)): 91%

Compound: CC(C)(C)c1cc(C(=O)N2CCc3c([nH]c4ccccc34)C2c2ccc([N+](=O)[O-])cc2)n(Cc2ccccc2)n1 (stereo not shown) [Cmpd 142]
- % Inh @ 10 μM (rabbit) (PDEV [1]): −5%

Compound: O=S(=O)(c1ccccc1)c1ccc(S(=O)(=O)N2CCc3c([nH]c4ccccc34)C2c2ccc3c(c2)OCO3)s1 (stereo not shown) [Cmpd 145]
- % Inh @ 10 μM (rabbit) (PDEV [1]): 43%

Compound: O=S(=O)(c1ccccc1)c1ccsc1S(=O)(=O)N1CCc2c([nH]c3ccccc23)C1c1ccc2c(c1)OCO2 (stereo not shown) [Cmpd 146]
- % Inh @ 10 μM (rabbit) (PDEV [1]): 35%

Compound: CN(C)CCn1c2c(c3ccccc31)CCN(C(=O)c1cc3ccccc3o1)C2c1ccc2c(c1)OCO2 (stereo not shown) [Cmpd 147]
- inhibition at 10 µM (PDEV [1]; [4]): 52%

Compound: COc1ccc(-c2cnc(N3CCc4c(n(CCN5CCCC5)c5ccccc45)C3c3ccc4c(c3)OCO4)nc2)cc1 (stereo not shown) [Cmpd 148]
- inhibition at 10 µM (PDEV [1]; [4]): 66%

Compound: O=C(c1ccc(-c2ccccc2)o1)N1CCc2c([nH]c3ccccc23)C1c1ccc2c(c1)OCO2 (stereo not shown) [Cmpd 149]
- inhibition at 10 µM (PDEV [1]; [4]): 80%

Compound: c1ccc2oc(N3CCc4c(n(-c5nc6ccccc6o5)c5ccccc45)C3c3ccc4c(c3)OCO4)nc2c1 (stereo not shown) [Cmpd 150]
- % INH @ 10 μM (rabbit) (PDEV [1]): 4%

Compound: c1ccc2oc(N3CCc4c([nH]c5ccccc45)C3c3ccc4c(c3)OCO4)nc2c1 (stereo not shown) [Cmpd 151]
- inhibition at 10 µM (PDEV [1]; [4]): 95%

Compound: CN(C)CCn1c2c(c3ccccc31)CCN(C(=O)c1ccc(-c3ccccc3)o1)C2c1ccc2c(c1)OCO2 (stereo not shown) [Cmpd 152]
- inhibition at 10 µM (PDEV [1]; [4]): 80%

Compound: c1ccc(-c2cnc(N3CCc4c([nH]c5ccccc45)C3c3ccc4c(c3)OCO4)nc2)nc1 (stereo not shown) [Cmpd 153]
- inhibition at 10 µM (PDEV [1]; [4]): 95%

Compound: CS(=O)(=O)c1ccc(-c2cnc(N3CCc4c(n(CCN5CCCC5)c5ccccc45)C3c3ccc4c(c3)OCO4)nc2)c([N+](=O)[O-])c1 (stereo not shown) [Cmpd 154]
- inhibition at 10 µM (PDEV [1]; [4]): 97%

Compound: CN(C)CCn1c2c(c3ccccc31)CCN(c1nc3ccccc3o1)C2c1ccc2c(c1)OCO2 (stereo not shown) [Cmpd 155]
- pIC50 (PDEV [1]): 5.04
- inhibition at 10 µM (PDEV [1]; [4]): 57%

Compound: COc1ccc(-c2cnc(N3CC(=O)c4c([nH]c5ccccc45)C3c3ccc4c(c3)OCO4)nc2)cc1OC (stereo not shown) [Cmpd 157]
- pIC50 (PDEV [2]): 8.06

Compound: COc1ccc(-c2cnc(N3CC(O)c4c([nH]c5ccccc45)C3c3ccc4c(c3)OCO4)nc2)cc1 (stereo not drawn) [Cmpd 158, 1-(3,4-Methylenedioxy-phenyl)-2-[5-(4-methoxyphenyl)-pyrimidin-2-yl]-4-hydoxy-2,3,4,9-tetrahydro-1H-β-carboline]
- % INH @ 10 μM (rabbit) (PDEV [1]; 10 µM): 49%

Compound: COc1ccc(-c2cnc(N3CC(=O)c4c([nH]c5ccccc45)C3c3ccc4c(c3)OCO4)nc2)cc1 (stereo not shown) [Cmpd 162]
- pIC50 (PDEV [2]): 7.62

Compound: COc1ccc(-c2cnc(N3CC(O)c4c([nH]c5ccccc45)C3c3ccc4c(c3)OCO4)nc2)cc1 (stereo not shown) [Cmpd 164]
- % INH @ 10 μM (rabbit) (PDEV [1]; 10 µM): 82%

Compound: Cc1ccc(-c2cnc(N3CCc4c(n(-c5ncc(-c6ccc(C)cc6)cn5)c5ccccc45)C3c3ccc4c(c3)OCO4)nc2)cc1 (stereo not shown) [Cmpd 166]
- % INH @ 10 μM (rabbit) (PDEV [1]): 58%

Compound: c1cnc(N2CCc3c([nH]c4ccccc34)C2c2ccc3c(c2)OCO3)nc1 (stereo not shown) [Cmpd 168]
- pIC50 (PDEV [2]): 5.67

Compound: c1ccc2[nH]c(N3CCc4c([nH]c5ccccc45)C3c3ccc4c(c3)OCO4)nc2c1 (stereo not shown) [Cmpd 172]
- % INH @ 10 μM (PDEV [2]; 10 μM test compound): 44^a %

Compound: COc1ccc(-c2cnc(N3CCc4c([nH]c5ccccc45)C3c3ccc4c(c3)CCO4)nc2)cc1 (stereo not shown) [Cmpd 174]
- pIC50 (PDEV [2]): 6.82

Compound: c1ccc2c3c([nH]c2c1)C(c1ccc2c(c1)CCO2)N(c1ncc(-c2ccc(OCCN4CCCC4)cc2)cn1)CC3 (stereo not shown) [Cmpd 178]
- % INH @ 10 μM (rabbit) (PDEV [1]): 37%

Compound: c1ccc2c3c([nH]c2c1)C(c1ccc2c(c1)CCO2)N(c1ncc(-c2ccc(OCCN4CCOCC4)cc2)cn1)CC3 (stereo not shown) [Cmpd 180]
- % INH @ 10 μM (rabbit) (PDEV [1]): 40%

Compound: c1ccc(-c2cnc(N3CCc4c([nH]c5ccccc45)C3c3ccc4c(c3)OCO4)nc2)nc1 (stereo not shown) [Cmpd 183]
- pIC50 (PDEV [2]): 6.91

Compound: COc1ccc(-c2cnc(N3CCc4c([nH]c5ccccc45)C3c3ccc4c(c3)OCCO4)nc2)cc1 (stereo not shown) [Cmpd 184]
- pIC50 (PDEV [2]): 6.19

Compound: Cc1ncc(-c2cnc(N3CCc4c([nH]c5ccccc45)C3c3ccc4c(c3)CCO4)nc2)n1C (stereo not drawn) [Cmpd 190, 1-(2,3-Dihydro-benzofuran-5-yl)-2-[5-(2,3-dimethyl-3H-imidazol-4-yl)-pyrimidin-2-yl]-2,3,4,9-tetrahydro-1H-β-carboline]
- pKi (PDEV [3]): 7.85

Compound: c1ccc(-c2ccc(N3CCc4c([nH]c5ccccc45)C3c3ccc4c(c3)CCO4)nc2)nc1 (stereo not drawn) [Cmpd 191, 2-[2,3′]Bipyridinyl-6′-yl-1-(2,3-dihydro-benzofuran-5-yl)-2,3,4,9-tetrahydro-1H-β-carboline]
- pKi (PDEV [3]): 9.16

Compound: CCCc1nn(C)c2c(=O)[nH]c(-c3cc(S(=O)(=O)N4CCN(C)CC4)ccc3OCC)nc12 [sildenafil, 5-[2-ethoxy-5-(4-methylpiperazin-1-ylsulphonyl)phenyl]-1-methyl-3-n-propyl-6,7-dihydro-1H-pyrazolo[4,3-d]pyrimidin-7-one]
- improved sexual function, share of men (erectile dysfunction; men who suffer from ED of psychogenic or organic etiology): about 70%
- improved erections, share of patients (erectile dysfunction; patients who had undergone a radical prostatectomy, 15% on placebo): 43%
